The nature of assay [1]: Binding kinetics of dye to synthetic vesicles (fluorescence increase). As to the method:
All of the vehicles used in these studies were prepared to have a final lipid, egg lecithin+cholesterol concentration of 10 mg/ml. Cholesterol concentrations were varied between 0 and 45 mol % by varying the lipid composition from which the vesicles were produced. The subject dyes were added in 10% aqueous isopropyl alcohol solutions to vesicle suspensions in water. The dyes are non-fluorescent in 10% aqueous isopropy alcohol, but are highly fluorescent in vesicles. The increase in fluorescence was monitored at an excitation wavelength of 460 nm and an emission wavelength of 519 nm. Fluorescence intensity was measured as a function of time, and fit to a standard first-order kinetic plot.

A short description of assay [2]: Bleaching kinetics in synthetic vesicles. The assay is classed as physicochemical. Particulars: 150-W xenon arc lamp, 20° C. The protocol: The dye was incorporated into synthetic vesicles as described above. The vesicles were irradiated with a 150-W Oriel xenon arc lamp at a distance of 4 cm from the lens at a thermostated temperature of 20° C. The change in fluorescence intensity with time was determined above, and the results plotted as a standard first order plot.

In the next assay the test system is cytochrome c. In words: Effect of irradiation on membrane-bound protein function: oxidation of vesicle-bound cytochrome c by CO(phen)3^3+. To be noted: 1×10^-7 M dye, irradiated; pH 7.5, 20° C.; without dye 25±1. The assay is classed as biochemical. As to the method:
Cytochrome C, a mitochondrial protein which is peripherally associated with membranes was studied as a model for the effect of photomodification of the membrane lipids on protein function. At pH 7.5 and 20° C., the rate of oxidation of vesicle-bound cytochrome c (7×10^-6 M) by CO(phen)3^3 + was 25±1 s^-1. Upon addition of Compound VII (1×10^-7 M) to the vesicles containing reduced cytochrome c, and subsequent irradiation as described above, the rate constant for oxidation of the bound cytochrome c under the same conditions was reduced to 2±1 s^-1.

For assay [3], the system named is Human serum Albumen (HSA). In words: Protein crosslinking with DiEd6Br: human serum albumen. Format: biochemical. To be noted: 30.0 μM, 791 J/cm^2.
For assay [4], the system named is Herpes simplex virus type 1. The assay is described as follows: Effect of DiEd6Br and light on aqueous suspensions of HSV-1 (plaque assay). The assay is classed as cell-based, MacIntyre strain.
The test system of assay [5] is Human immunodeficiency virus (HIV). In words: Effect of DiEd6Br and light on HIV (MTT viability of MT-4 cells). The assay is classed as cell-based. To be noted: for Optical Density (MTT, MT-4 cells): mean of triplicate, 570 nm.
A short description of assay [6]: Tissue bonding of swine dura mater with DiEd6Br and light. The source says:
Bonding together of the overlapping surfaces of two strips of swine dura mater and of two thin slices of beef muscle with application of DiEd6Br in Cremophor EL as a carrier and irradiation with 420 # 5 nm light filtered from a xenon arc lamp were studied.
Strips approximately 3×0.5 cm in dimension were cut from freshly harvested swine cranial dura mater, washed with 70% ethanol/water and blotted to dryness with standard chemical filter paper. External faces of each member of two pairs of strips were coated with a stock solution of Cremophor EL saturated at room temperature with DiEd6Br (approximately 2.5 millimolar), overlapped 1 cm with long axes parallel, and clamped between two Pyrex glass slides with edges of the slide-tissue-slide sandwich sealed with Parafilm. One sample was irradiated with 420 # 5 nm light of 25 mW/cm^2 irradiance for […]. at room temperature to give a total light fluence of approximately 1800 J/cm^2. The companion sample was wrapped in aluminum foil for light shielding and placed alongside the irradiated sample for the duration of the experiment.
Following their respective irradiation or being held in the dark in similar temperature ambience, one end of a strip of each sample was clamped and from the other a Styrofoam container was hung by a clamp and fine suspension wires (weight of clamp plus container plus wires=33.3 gm). Weights (10 gm each) were added gently in a sequential fashion to give a total weight of 296.3 gm upon which the strip is separated at their interface within the overlapped region of the irradiated sample. Strips of the un-irradiated sample separated immediately at their interface under the 33.3 gm loading of the "weighing" container. […] Elongation was approximately 50% at shearing of the interface.

A further assay concerns H9 cells. The assay is described as follows: Location in living cells (fluorescence microscopy). Format: cell-based, human. Particulars: 5 and 25 μM; 1.5 hours. As to the method: Following the protocol of (1), above, H9 cells were stained with Compound lb, and the technique of fluorescent microscopy was used to determine visually the sites of localization of dye fluorescence in living cells. Specifically, H9 cells were counted with a hemocytometer and diluted to 5×10^5 /ml. Compound 1b was added to two aliquots to give dye concentrations of 5 and 25 μM, and the tubes were incubated for 1.5 hours. Cytospin slides of the cell suspensions were made and they were examined with the fluorescence microscope (Olympus AH-2) using B excitation plus a 460 nm interference excitation filter and a 495 nm emission filter. The cells were also counted with a hemocytometer and their viability determined (see below). […] The former may reflect the diffusional component of the dye incorporation, or may reflect binding in the ER membrane. The latter may indicate lysosomal localization of pinocytosed dye as occurs with Lucifer Yellow.

Here are results for three compounds from patent publication US5235045A, “Non-azo naphthalimide dyes” (priority 1992, dated 1993).

Read-outs that look alike come from different tables or passages of the source.

With `CCCCCCNc1c(Br)cc2c3c(cccc13)C(=O)N(CCCCCC)C2=O` [Compound VII, 3-bromo-4-(hexyl)amino-N-hexyl-1,8-naphthalimide], the “rate constant for binding” value in assay [1] (0 mol % cholesterol) is listed as 0.814 ± 0.005 × 10^-3 s^-1; in assay [1] (15 mol % cholesterol), 1.020 ± 0.005 × 10^-3 s^-1; in assay [1] (30 mol % cholesterol), 1.54 ± 0.02 × 10^-3 s^-1; in assay [1] (45 mol % cholesterol), 2.75 ± 0.01 × 10^-3 s^-1. In addition, the “rate constant for bleaching” value in assay [2] (0 mol % cholesterol) is recorded as 1.08 ± 0.08 × 10^-3 s^-1; in assay [2] (15 mol % cholesterol), 2.00 ± 0.13 × 10^-3 s^-1; in assay [2] (30 mol % cholesterol), 3.08 ± 0.20 × 10^-3 s^-1; in assay [2] (45 mol % cholesterol) it was 3.1 ± 0.9 × 10^-3 s^-1. Moreover, in the assay with cytochrome c, the “rate constant for oxidation of bound cytochrome c” value amounted to 2 ± 1 s⁻¹.
Turning to `CCCCCCN1C(=O)c2cccc3c(NCCNC(=O)CCCCC(=O)NCCNc4c(Br)cc5c6c(cccc46)C(=O)N(CCCCCC)C5=O)c(Br)cc(c23)C1=O` [Compound XLIV], in assay [3], the heavier bands entry is “many ill separated heavier bands merging together near”. The entries for the “Inferred Crosslinked Species” value in assay [3] (first species), in assay [3] (second species) and in assay [3] (third species) were 2 HSA, 3 HSA and 3 HSA, respectively. The “Inferred Crosslinked Species, Gel mw” value in assay [3] (2 HSA units) stood at 120 kD; in assay [3] (3 HSA units (so in the source), third species) it was 240 kD; in assay [3] (3 HSA units, second species), 180 kD. Moreover, the PFU/ml in assay [4] (2.5 μM, not irradiated) is 1.3 × 10^6 PFU/ml; in assay [4] (10 μM, not irradiated) it was 1.2 × 10^6 PFU/ml; in assay [4] (.156 μM, not irradiated), 1.1 × 10^6 PFU/ml; in assay [4] (.625 μM, not irradiated), 1.0 × 10^6 PFU/ml; in assay [4] (Test #1, 2.5 μM, 20 J/cm2, 420 nm), 0 PFU/ml; in assay [4] (Test #1, 10 μM, 20 J/cm2, 420 nm) it was 0 PFU/ml. Besides, the PFU/ml in assay [4] (Test #1, .156 μM, 20 J/cm2, 420 nm) was 0 PFU/ml; in assay [4] (Test #1, .625 μM, 20 J/cm2, 420 nm), 0 PFU/ml; in assay [4] (Test #2, .0099 μM, 20 J/cm2, 420 nm), 4.0 × 10^2 PFU/ml; in assay [4] (Test #2, .0195 μM, 20 J/cm2, 420 nm) it was 4.3 × 10^1 PFU/ml; in assay [4] (Test #2, .039 μM, 20 J/cm2, 420 nm), 9.9 × 10^0 PFU/ml; in assay [4] (Test #2, .078 μM, 20 J/cm2, 420 nm), 0 PFU/ml. In assay [4] (Test #2, .156 μM, 20 J/cm2, 420 nm), the PFU/ml came to 0 PFU/ml. The log reduction at 2.5 µM stood at 0 in assay [4] (Human alphaherpesvirus 1, light or radiation study, 2.5 μM, not irradiated, read-out: Log10 Reduction) and 6 in assay [4] (Human alphaherpesvirus 1, light or radiation study, Test #1, 2.5 μM, 20 J/cm2, 420 nm, read-out: Log10 Reduction). Moreover, the log reduction at 10 µM worked out at 0.0348 in assay [4] (Human alphaherpesvirus 1, light or radiation study, 10 μM, not irradiated, read-out: Log10 Reduction) and 6 in assay [4] (Human alphaherpesvirus 1, light or radiation study, Test #1, 10 μM, 20 J/cm2, 420 nm, read-out: Log10 Reduction). For the same compound, the log reduction at 0.156 µM in assay [4] (Human alphaherpesvirus 1, light or radiation study, .156 μM, not irradiated, read-out: Log10 Reduction) is 0.0725; in assay [4] (Human alphaherpesvirus 1, light or radiation study, Test #1, .156 μM, 20 J/cm2, 420 nm, read-out: Log10 Reduction), 6; in assay [4] (Human alphaherpesvirus 1, light or radiation study, Test #2, .156 μM, 20 J/cm2, 420 nm, read-out: Log10 Reduction), 5.87. The log reduction at 0.625 µM in assay [4] (Human alphaherpesvirus 1, light or radiation study, .625 μM, not irradiated, read-out: Log10 Reduction) is 0.114; in assay [4] (Human alphaherpesvirus 1, light or radiation study, Test #1, .625 μM, 20 J/cm2, 420 nm, read-out: Log10 Reduction) it was 6. Moreover, the log reduction at 0.0099 µM in assay [4] (Human alphaherpesvirus 1, light or radiation study, Test #2, .0099 μM, 20 J/cm2, 420 nm, read-out: Log10 Reduction) stood at 3.27. In addition, the log reduction at 0.0195 µM in assay [4] (Human alphaherpesvirus 1, light or radiation study, Test #2, .0195 μM, 20 J/cm2, 420 nm, read-out: Log10 Reduction) stood at 4.24. Further, in assay [4] (Human alphaherpesvirus 1, light or radiation study, Test #2, .039 μM, 20 J/cm2, 420 nm, read-out: Log10 Reduction), the log reduction at 0.039 µM came out at 4.87. For the same compound, the log reduction at 0.078 µM in assay [4] (Human alphaherpesvirus 1, light or radiation study, Test #2, .078 μM, 20 J/cm2, 420 nm, read-out: Log10 Reduction) is 5.87. The “kill of HSV-1” value in assay [4] (as low as 0.0195 mM, 420 nm, 2.5% or less of serum proteins) is given as over 99.99%. In addition, the “Optical Density (MTT, MT-4 cells)” value in assay [5] (1.25 μM, 0 J/cm^2) is on record as 0.541; in assay [5] (1.25 μM, 20 J/cm^2), 1.242; in assay [5] (2.5 μM, 0 J/cm^2), 0.290; in assay [5] (2.5 μM, 20 J/cm^2), 1.309; in assay [5] (5 μM, 0 J/cm^2), 0.559; in assay [5] (5 μM, 20 J/cm^2), 1.337. Also, the “inactivation of HIV” value in assay [5] (1.25 mM or greater (so in the source), light treated) is given as “essentially complete inactivation of HIV”. Moreover, the deformation after separation entry in assay [6] (irradiated) is given as “no plastic deformation”. In assay [6] (irradiated), the “elongation at shearing of the interface” value was “approximately 50%”. Also, in assay [6] (irradiated, approximately 1800 J/cm^2), the “total weight at separation of strips” value is on record as 296.3 gm. For the same compound, the “loading at which strips separated immediately” value in assay [6] (un-irradiated) was at most 33.3 gm.
With `CCCCCCNc1ccc2c3c(cccc13)C(=O)N(CCCCCC)C2=O` [Compound 1b, 4-(hexyl)amino-N-hexyl-1,8-naphthalimide], in the assay with H9 cells, the “localization in cell nucleus” value was “rigorously excluded from the cell nucleus” and the “site of dye fluorescence” value is given as “highly fluorescent with the cytoplasm being the primary site”.
